Data from patent US6573276B2, “Muscarinic M1 agonist as an inhibitor of beta-amyloid (Aβ40 and Aβ42)-synthesis” (Boehringer Ingelheim Pharma KG, priority 2001, dated 2003).

Columns and labels:
[1] = tested on: tau protein; assay: CSF levels of tau (sandwich ELISA) before and after 4 weeks of treatment, clinical phase II trial; assay type: in vivo, human; conditions: patients
Experimental: (§1) To test whether this effect also occurs in humans, talsaclidine or placebo were administered to 40 patients with clinical diagnosis of probable senile dementia of Alzheimer-type and measured cerebrospinal fluid (CSF) levels of Aβ40 and Aβ42 before and at the end of 4 weeks of treatment. To control for specificity, CSF levels of both total tau and phosphorylated tau were also measured.
(§2) Diagnosis of probable Alzheimer's disease was made according to the National Institute of Neurological and Communicative Disorders and Stroke-Alzheimer's Disease and Related Disorders Association (NINCDS-ADRDA) as well as ICD10 criteria. All patients were community-dwelling and were referred to the participating dementia clinics from general practitioners, neurologists, and psychiatrists. All patients gave their informed consent and were screened for participation in a clinical phase II trial in accordance with GCP and ICH guidelines. The clinical phase II trial was designed to test the safety and tolerability of talsaclidine. CSF measurements were performed within a scientific add-on protocol and additional separate informed consent to the multicenter clinical trial.
Patients were carefully examined and received a thorough clinical work-up. […]
The monoclonal antibody AT120 that reacts with both normal and HPF-tau was used in a sensitive sandwich ELISA (Innogenetics, Belgium). […] Absorbance was read at 450 nm. […]

[2] = tested on: Aβ formation; conditions: cell culture and brain slice models; background statement; cited from earlier work
[3] = tested on: Aβ42; assay: CSF levels of Aβ42 (sandwich ELISA) before and after 4 weeks of treatment, clinical phase II trial; assay type: in vivo, human
Experimental: as §1, §2
Patients were carefully examined and received a thorough clinical work-up. Psychometric testing included the Mini Mental State Examination (MMSE) as a global screening instrument for dementia, the Alzheimer's Disease Assessment Scale, cognitive part (ADAScog), the Clinical Global Impression (CGI) and the Behavioral Pathology in AD (BEHAVE-AD). There were 40 participants in the study with two CSF samples each. Among the inclusion criteria were age below 85 years, MMSE between 12 and 28, and the absence of relevant systemic disorders.
Talsaclidine was given, in a randomized, double-blind design, three times per day (t.i.d) in a constant dosage with increasing dose panels. Both capsules or tablets of different dose strength were applied. The specific formulations used are outlined in detail below.
The aforementioned pharmaceutical compositions were administered twice daily or three times per day to the patients. The following dosings were applied: 4.5 mg talsaclidine (n=5 patients); 9 mg (n=4); 18 mg (n=4); 36 mg (n=4); 72 mg (n=4); 96 mg (n=4); 108 mg (n=4); 120 mg (n=2); 144 mg (n=3); and placebo (n=6).
Within one week of dementia testing and before treatment, CFS was obtained by lumbar puncture according to conventional techniques. CFS samples were frozen on dry ice immediately upon withdrawal at the bedside in 0.5 ml aliquots and stored at −85° C. until biochemical analyses. A second lumbar puncture was done after four weeks of treatment and the CFS obtained was processed identically to the initial lumbar puncture. All available CFS samples were included in the analyses.
Sandwich ELISA was performed by using precoated plates (INNOTEST β-Amyloid 1-42, 8-well strips; Innogenetics, Belgium) with the capture antibody 21F12 (Innogenetics, Belgium). The capture 21F12 is specific for the free carboxyl terminus of Aβ42 (peptide sequence Aβ33-42). After washing (5×, room temperature), biotinylated antibody 6E10 at […] concentration in blocking buffer (50 mM Tris-HCl pH 7.5; 140 mM NaCl; 5 mM EDTA; 0.05% NP40; 0.25% gelatine; 1% BSA) was added. Each assay plate included a standard curve with highly purified Aβ42. After color development with TMP and Vectastain ABC detection (streptavidin-peroxidase complex, Vectastain Elite ABC Kit), absorbance was read at 450 nm. The linear range of the assay was 30 pg/ml to 5 ng/ml. There was no cross reactivity in either assay with Aβ42 or Aβ40.
Statistical analyses of data were done by Wilcoxon signed-rank tests for paired samples as well as by the Mann-Whitney U test for group comparisons. Bonferroni correction for multiple testing was performed. Analyses of covariates were used to test whether changes correlated with age, gender, or dementia severity.

[4] = tested on: Aβ40; assay: CSF levels of Aβ40 (sandwich ELISA) before and after 4 weeks of treatment, clinical phase II trial; assay type: in vivo, human
Experimental: as §1
as §2, with “CSF measurements were performed within a scientific add-on protocol and additional separate informed consent to the multicenter clinical trial.” left out
Sandwich ELISA was performed with the capture antibody 6E10 (Senetek, Maryland Heights, Mo.). […] After color development with 3,5,3′,5′-tetramethylbenzidine (TMB) and hydrogen peroxide, absorbance was read at 450 nm on a microplate reader (Victor2 Multilabel, EG&G® Wallac). […]

[5] = dosings 4.5 to 144 mg talsaclidine, four weeks
[6] = patients treated with talsaclidine, four weeks

C#CCOC1CN2CCC1CC2 (stereo not drawn) [talsaclidine]
dose dependence of change of CSF tau ([1]; n=34, dosings 4.5 to 144 mg talsaclidine, four weeks): decreased dose dependently
CSF tau in total in comparison to placebo ([1]; n=34, four weeks of treatment): did not decrease in total in comparison to placebo
Aβ formation [2]: lowers Aβ formation
dose dependence of the decrease of CSF levels of Aβ42 [3, 5]: not dose dependently
patients in whom CSF levels of Aβ42 decreased [3, 6]: 65%
patients in whom CSF levels of Aβ42 did not change [3, 6]: 15%
patients in whom CSF levels of Aβ42 increased [3, 6]: 20%
mean CSF levels of Aβ42 (mean±SD) ([3]; patients with probable Alzheimer's disease, talsaclidine group n=34, starting value ('decreased from'), value after four weeks not given): 0.126 ± 0.073 ng/mL
decrease of CSF levels of Aβ42 over time within the treatment group, median ([3]; patients, four weeks of treatment, n=34, significant): 17%
decrease of CSF levels of Aβ42 compared to placebo, median ([3]; patients, four weeks of treatment, talsaclidine n=34 vs placebo n=6, significant): 23%
dose dependence of change of CSF levels of Aβ40 [4, 5]: decreased dose dependently
CSF levels of Aβ40 in total in comparison to placebo ([4]; patients, four weeks of treatment): did not increase in total in comparison to placebo
